Literature values in patent US20050232952A1, “Self emulsifying drug delivery systems for poorly soluble drugs” (priority 2002, published 2005).

Settings: humans

SMILES: CC(=O)O[C@H]1C(=O)[C@@]2(C)[C@H]([C@H](OC(=O)c3ccccc3)[C@]3(O)C[C@H](OC(=O)[C@H](O)[C@@H](NC(=O)c4ccccc4)c4ccccc4)C(C)=C1C3(C)C)[C@]1(OC(C)=O)CO[C@@H]1C[C@@H]2O [paclitaxel, Paclitaxel]
- systemic bioavailability after oral paclitaxel administration: less than 6%
